Source: patent publication US20250074911A1, “MACROCYCLIC BTK INHIBITORS” (Crossfire Oncology Holding B.V., priority 2021, published 2025)

Assays:
[1] = system: wt-REC-1 mantle cell lymphoma cells; assay: Cell proliferation assay wt-REC-1 (ATPlite, 72 hours); type: cell-based; details: 72 h; read-out: IC50 wt-REC-1
Description: Results of the BTK […] binding affinity are shown in Table 1 below. • IC50 BTK […]: […] wt-REC-1 mantle cell lymphoma cells were purchased from American Type Culture Collection via Synthego Corporation (cat. no. CRL-3004, ATCC). […] Luminescence was recorded on an Envision multimode reader. The cell signal at the start of incubation was recorded separately in order to distinguish between cell population growth and cell death. In addition, maximum growth was determined by incubation of a duplicate without compound in the presence of 0.3% DMSO. Percentage growth was used as the main y-axis signal. IC50s were fitted by non-linear regression using IDBS XLfitTM5 using a 4-parameter logistic curve, yielding a maximum signal, minimum signal, hill-parameter and IC50. Results of the wt-REC-1 proliferation are shown in Table 1 below. • IC50 wt-REC-1: […]

[2] = system: REC-1 T474I cell lines; assay: Cell proliferation assay REC-1 BTK T474I knock-in cells (ATPlite, 72 hours); type: cell-based; details: Homo sapiens, Rec1; 72 hours; read-out: IC50 REC-1 T474I
Description: Cell proliferation assay Generation of BTK […] knock-in cell lines wt-REC-1 cell lines expressing mutant BTK were created at Synthego Corporation. Cell lines expressing BTK […] was generated via CRISPR/Cas9. Monoclonal REC-1 […] cell lines were obtained by single cell cloning. The mutation status of all cell lines was confirmed via sequencing. […] Luminescence was recorded on an Envision multimode reader. The cell signal at the start of incubation was recorded separately in order to distinguish between cell population growth and cell death. In addition, maximum growth was determined by incubation of a duplicate without compound in the presence of 0.3% DMSO. Percentage growth was used as the main y-axis signal.

[3] = biological target: full-length BTK C481S enzyme (Homo sapiens (Human), UniProt Q06187, C481S); assay: Biochemical kinase assay BTK C481S (IMAP)
Description: Biochemical kinase assay BTK […] To determine the inhibitory activity of compounds on BTK C481S enzyme activity, the IMAP® assay (Molecular Devices) was used. […] After pre-incubation of 1 hour in the dark at room temperature, fluorescein-labeled MBP-derived substrate peptide (Molecular Devices, cat. no. RP 7123) was added, followed by ATP to start the reaction. Final enzyme concentration was 1.2 nM final substrate concentration 50 nM, and final ATP concentration was 7 μM. The reaction was allowed to proceed for 2 hours at room temperature in the dark. The reaction was stopped by quenching with IMAP progressive binding solution according to the protocol of the manufacturer (Molecular Devices). Fluorescein polarization was measured on an Envision multimode reader (Perkin Elmer, Waltham, MA, U.S.A.). IC50 were calculated using XLfitTM5 software (ID Business Solutions, Ltd., Surrey, U.K.). Results of the BTK […] binding affinity are shown in Table 1 below. • IC50 BTK […]: […]

[4] = biological target: full-length wt-BTK enzyme (Homo sapiens (Human), UniProt Q06187); assay: Biochemical kinase assay wt-BTK (IMAP)
Description: Biochemical kinase assay wt-BTK To determine the inhibitory activity of compounds on wt-BTK enzyme activity, the IMAP® assay (Molecular Devices) was used. […] After pre-incubation of 1 hour in the dark at room temperature, fluorescein-labeled MBP-derived substrate peptide (Molecular Devices, cat. no. RP 7123) was added, followed by ATP to start the reaction. Final enzyme concentration was 1.2 nM, final substrate concentration 50 nM, and final ATP concentration was 4 μM. The reaction was allowed to proceed for 2 hours at room temperature in the dark. The reaction was stopped by quenching with IMAP progressive binding solution according to the protocol of the manufacturer (Molecular Devices). Fluorescein polarization was measured on an Envision multimode reader (Perkin Elmer, Waltham, MA, U.S.A.). […] Results of the wt-BTK binding affinity are shown in Table 1 below. • IC50 wt-BTK: […]

Sequence of full-length wt-BTK enzyme (Q06187 whole entry): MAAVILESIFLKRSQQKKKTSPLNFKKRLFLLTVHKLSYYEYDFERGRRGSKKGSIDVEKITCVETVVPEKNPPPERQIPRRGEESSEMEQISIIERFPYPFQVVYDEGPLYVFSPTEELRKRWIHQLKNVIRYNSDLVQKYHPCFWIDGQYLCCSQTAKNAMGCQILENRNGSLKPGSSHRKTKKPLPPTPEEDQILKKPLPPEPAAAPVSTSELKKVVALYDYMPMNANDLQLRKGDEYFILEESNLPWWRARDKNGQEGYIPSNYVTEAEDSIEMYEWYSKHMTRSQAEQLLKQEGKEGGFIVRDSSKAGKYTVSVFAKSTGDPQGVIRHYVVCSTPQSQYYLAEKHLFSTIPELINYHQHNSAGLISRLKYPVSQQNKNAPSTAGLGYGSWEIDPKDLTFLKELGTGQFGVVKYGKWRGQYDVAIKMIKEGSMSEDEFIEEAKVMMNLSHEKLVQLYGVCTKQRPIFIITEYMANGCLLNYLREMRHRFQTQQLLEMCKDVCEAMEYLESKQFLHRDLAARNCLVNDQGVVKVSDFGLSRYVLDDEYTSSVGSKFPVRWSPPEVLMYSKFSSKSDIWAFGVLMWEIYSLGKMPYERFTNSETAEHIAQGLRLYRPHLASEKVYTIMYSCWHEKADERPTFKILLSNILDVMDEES
Sequence of full-length BTK C481S enzyme (Q06187 whole entry C481S): as the sequence (Q06187 whole entry) above, with C481S counted along it

Structure (SMILES) | IC50 [1] | IC50 [3] | IC50 [4] | IC50 [2]
C[C@@H]1CCn2nc(-c3ccc(C(=O)Nc4cc(C(F)(F)F)ccn4)cc3)c3c(N)ncc(c32)/C=C/C[S+]([O-])CC(=O)N1 (stereo partly shown) [Example 65] | 1000 to 10000 nM | < 5 nM | < 5 nM | 500 to 10000 nM
Nc1ncc2c3c1c(-c1ccc(C(=O)Nc4cc(C(F)(F)F)ccn4)cc1)nn3[C@@H]1CCC[C@H](C1)C(=O)NCCCCCC/C=C\C2 [Example 92] | 100 to 1000 nM | 5 to 50 nM | 5 to 50 nM | 500 to 10000 nM
C[C@@H]1CCn2nc(-c3ccc(C(=O)Nc4cc(C(F)(F)F)ccn4)cc3)c3c(N)ncc(c32)/C=C/CNCCCC(=O)N1 [Example 67] | 1000 to 10000 nM | < 5 nM | < 5 nM | 500 to 10000 nM
Nc1ncc2c3c1c(-c1ccc(C(=O)Nc4ccccn4)cc1)nn3[C@@H]1CCC[C@H](C1)C(=O)NCCCC/C=C/C2 [Example 87a] | 1000 to 10000 nM | 50 to 500 nM | 50 to 500 nM | 500 to 10000 nM
C[C@@H]1CCn2nc(-c3ccc(C(=O)Nc4cc(C(F)(F)F)ccn4)cc3)c3c(N)ncc(c32)/C=C/CCCCCCC(=O)N1 [Example 62] | 100 to 1000 nM | < 5 nM | < 5 nM | 500 to 10000 nM
Nc1ncc2c3c1c(-c1ccc(C(=O)Nc4ccccn4)cc1)nn3[C@@H]1CCC[C@H](C1)C(=O)NCCCCC/C=C/C2 [Example 88a] | 100 to 1000 nM | 5 to 50 nM | 5 to 50 nM | 500 to 10000 nM
Nc1ncc2c3c1c(-c1ccc(C(=O)Nc4cc(C(F)(F)F)ccn4)cc1)nn3[C@@H]1CCC[C@H](C1)C(=O)NCCCCC/C=C/C2 [Example 89a] | 100 to 1000 nM | 5 to 50 nM | 5 to 50 nM | 500 to 10000 nM
COC1/C=C/c2cnc(N)c3c(-c4ccc(C(=O)Nc5cc(C(F)(F)F)ccn5)cc4)nn(c23)[C@@H]2CCC[C@H](C2)NC(=O)CCC1 (stereo partly shown) [Example 19] | 100 to 1000 nM | 5 to 50 nM | 5 to 50 nM | 500 to 10000 nM
Nc1ncc2c3c1c(-c1ccc(C(=O)Nc4ccccn4)cc1)nn3[C@@H]1CCC[C@H](C1)C(=O)NCCCCCC/C=C\C2 [Example 93] | 100 to 1000 nM | < 5 nM | 5 to 50 nM | 500 to 10000 nM
C[C@@H]1CCn2nc(-c3ccc(C(=O)Nc4cc(C(F)(F)F)ccn4)cc3)c3c(N)ncc(c32)/C=C/CCCCCCCC(=O)N1 [Example 63] | 100 to 1000 nM | < 5 nM | < 5 nM | 500 to 10000 nM
C[C@@H]1CCn2nc(-c3ccc(C(=O)Nc4cc(C(F)(F)F)ccn4)cc3)c3c(N)ncc(c32)/C=C/CO[C@@H](C)C(=O)N1 [Example 58] | 1000 to 10000 nM | 5 to 50 nM | 5 to 50 nM | 500 to 10000 nM
Nc1ncc2c3c1c(-c1ccc(C(=O)Nc4cc(C(F)(F)F)ccn4)cc1)nn3[C@@H]1CCC[C@H](C1)C(=O)NCCC/C=C\C2 [Example 84b] | 100 to 1000 nM | < 5 nM | 5 to 50 nM | –

More lines, main results first:

IC50 [1] | IC50 [3] | IC50 [4] | Structure (SMILES) | IC50 [2]
1000 to 10000 nM | 50 to 500 nM | 50 to 500 nM | Nc1ncc2c3c1c(-c1ccc(C(=O)Nc4ccccn4)cc1)nn3[C@@H]1CCC[C@H](C1)NC(=O)CCCC/C=C/C2 [Example 100a] | 500 to 10000 nM
100 to 1000 nM | < 5 nM | < 5 nM | Nc1ncc2c3c1c(-c1ccc(C(=O)Nc4cc(C(F)(F)F)ccn4)cc1)nn3[C@@H]1CCC[C@H](C1)NC(=O)CCNCCCC2 [Example 112] | 100 to 500 nM
1000 to 10000 nM | 50 to 500 nM | 50 to 500 nM | Nc1ncc2c3c1c(-c1ccc(C(=O)Nc4cc(C(F)(F)F)ccn4)cc1)nn3[C@@H]1CCC[C@H](C1)C(=O)NCCCCC2 [Example 116] | 500 to 10000 nM
100 to 1000 nM | 50 to 500 nM | 50 to 500 nM | Nc1ncc2c3c1c(-c1ccc(C(=O)Nc4ccccn4)cc1)nn3[C@@H]1CCC[C@H](C1)NC(=O)CCCCC2 [Example 124] | 500 to 10000 nM
1000 to 10000 nM | 5 to 50 nM | 5 to 50 nM | Nc1ncc2n3c(nc(-c4ccc(C(=O)Nc5cc(C(F)(F)F)ccn5)cc4)c13)CCCNC(=O)CCC=CC2 [Example 134] | –
1000 to 10000 nM | 5 to 50 nM | 5 to 50 nM | Nc1ncc2c3c1c(-c1ccc(C(=O)Nc4cc(C(F)(F)F)ccn4)cc1)nn3[C@@H]1CCC[C@H](C1)NC(=O)CC/C=C/C2 [Example 95] | 500 to 10000 nM
1000 to 10000 nM | 5 to 50 nM | 5 to 50 nM | Nc1ncc2c3c1c(-c1ccc(C(=O)Nc4cc(C(F)(F)F)ccn4)cc1)nn3[C@@H]1CCC[C@H](C1)NC(=O)CCNC/C=C/C2 [Example 106] | 500 to 10000 nM
< 100 nM | < 5 nM | < 5 nM | Nc1ncc2c3c1c(-c1ccc(C(=O)Nc4ccccn4)cc1)nn3[C@@H]1CCC[C@H](C1)NC(=O)CCCCCCC2 [Example 126] | 100 to 500 nM
1000 to 10000 nM | 5 to 50 nM | 5 to 50 nM | Nc1ncc2n3c(nc(-c4ccc(C(=O)Nc5cc(C(F)(F)F)ccn5)cc4)c13)[C@@H]1CCC[C@H](C1)NC(=O)CC/C=C/C2 [Example 136] | –
100 to 1000 nM | 5 to 50 nM | 5 to 50 nM | Nc1ncc2c3c1c(-c1ccc(C(=O)Nc4cc(C(F)(F)F)ccn4)cc1)nn3[C@@H]1CCC[C@H](C1)NC(=O)CCC/C=C/C2 [Example 94a] | 500 to 10000 nM
< 100 nM | < 5 nM | < 5 nM | Nc1ncc2c3c1c(-c1ccc(C(=O)Nc4ccccn4)cc1)nn3[C@@H]1CCC[C@H](C1)NC(=O)CCCCC/C=C/C2 [Example 102a] | < 100 nM
100 to 1000 nM | 5 to 50 nM | 5 to 50 nM | Nc1ncc2c3c1c(-c1ccc(C(=O)Nc4cc(C(F)(F)F)ccn4)cc1)nn3[C@@H]1CCC[C@H](C1)NC(=O)CCCCC/C=C/C2 [Example 101a] | 500 to 10000 nM
1000 to 10000 nM | 5 to 50 nM | 5 to 50 nM | C[C@@H]1CCn2nc(-c3ccc(C(=O)Nc4cc(C(F)(F)F)ccn4)cc3)c3c(N)ncc(c32)CC=CCCCCCC(=O)N1 [Example 111] | 500 to 10000 nM
1000 to 10000 nM | 5 to 50 nM | 5 to 50 nM | Nc1ncc2n3c(nc(-c4ccc(C(=O)Nc5cc(C(F)(F)F)ccn5)cc4)c13)CCCNC(=O)CCCC=CC2 [Example 135] | –
